In one test the test system is Kuramochi cells. In words: BrdU Cell Proliferation Assay. The note with it: read-out: BrdU - KURAMOCHI.1: IC50. Format: cell-based. A digest of the protocol:
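Signal is 450 nm absorbance from a peroxidase anti-BrdU ELISA after a 1-hour BrdU label, background-subtracted and normalized to DMSO-treated wells. Kuramochi cells (2,000 per well) had been exposed to compound for 4 days. Dosing used a 10-point dose response in 3-fold steps.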

The test system of test [1] is Kuramochi cells labeled with mApple-H2B. The experiment in a line: IncuCyte Cell Proliferation Assay. The note with it: 72 h. Format: cell-based. A digest of the protocol:
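GI50 came from dose-response fits of cell-count fold change between 0 and 72 h, normalized to DMSO controls. Counts were fluorescent nuclei from live-cell images over a 10-point, ½ log series starting at 20 μM.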

Turning to `CN1CC[C@@H](NC(=O)[C@@H]2CN(C(=O)c3cnn(Cc4ccccc4)c3)CC23CN(C(=O)[C@H]2CC2(C)C)C3)C1=O` [I-258], the results for the IC50 (in the test on Kuramochi cells; in test [1]) were above 10 µM and above 20 µM, respectively.

Consider `CNC(=O)[C@@H](NC(=O)[C@@H]1CN(C(=O)c2cnn(Cc3ccccc3)c2)CC12CN(C(=O)NC1CC1)C2)[C@@H](C)OCC1CCCCC1` [I-268, (S)-6-(1-benzyl-1H-pyrazole-4-carbonyl)-N8-((2S,3R)-3-(cyclohexylmethoxy)-1-(methylamino)-1-oxobutan-2-yl)-N2-cyclopropyl-2,6-diazaspiro[3.4]octane-2,8-dicarboxamide], for which the IC50 is above 10 µM in the test on Kuramochi cells and above 20 µM in test [1].

In the case of `Cc1cc(C(=O)N2CC(C(=O)N[C@H](C(=O)N3CCCCC3)[C@@H](C)OCC3CCCCC3)C3(C2)CN(C(=O)[C@H]2CC2(C)C)C3)sn1` (some centres unmarked) [I-311], the IC50 (in the test on Kuramochi cells; in test [1]) was at most 0.5 µM each time.

For `C[C@@H](OCC1CCCCC1)[C@H](NC(=O)C1CN(C(=O)c2cnn(Cc3ccccc3)c2)CC12CN(C(=O)[C@H]1CC1(C)C)C2)C(=O)N1CCC(F)(F)CC1` (some centres unmarked) [I-149 mixture], the IC50 (in the test on Kuramochi cells; in test [1]) was at most 0.5 µM each time.

For `CNC(=O)[C@@H](NC(=O)[C@@H]1CN(C(=O)c2cnn(Cc3ccccc3)c2)CC12CN(C(=O)[C@H]1CC1(C)C)C2)[C@@H](C)OCC(C)(C)C` [I-130A], the IC50 is 5 to 10 µM with Kuramochi cells and 5 to 20 µM in test [1].

In the case of `CC1(C)C[C@@H]1C(=O)N1CC2(CN(C(=O)c3cncs3)C[C@H]2C(=O)N[C@@H](COCC2CCCCC2)C(=O)N2CCCCC2)C1` [I-286], the IC50 (with Kuramochi cells; in test [1]) was 0.5 to 5 µM throughout.

Consider `C[C@@H](OCC1CCCCC1)[C@H](NC(=O)[C@@H]1CN(C(=O)c2cncs2)CC12CN(C(=O)[C@H]1CC1(C)C)C2)C(=O)N1CCNCC1` [I-328], for which the IC50 (in the test with Kuramochi cells; in test [1]) was 0.5 to 5 µM throughout.

As for `CNC(=O)[C@@H](NC(=O)[C@@H]1CN(C(=O)c2cnn(Cc3ccccc3)c2)CC12CN(C(=O)C(C)(C)C1CC1)C2)[C@@H](C)OCc1ccccc1` [I-276], the IC50 in the test with Kuramochi cells is above 10 µM; in test [1] it was above 20 µM.

Consider `C[C@@H](OCC1CCC(F)(F)CC1)[C@H](NC(=O)[C@@H]1CN(C(=O)c2cncs2)CC12CN(C(=O)[C@H]1CC1(C)C)C2)C(=O)N1CCC(C(F)(F)F)CC1` [I-398], for which the IC50 (in the test on Kuramochi cells; in test [1]) was at most 0.5 µM throughout.

Turning to `CNC(=O)[C@@H](NC(=O)[C@@H]1CN(C(=O)c2sc(Cl)nc2Cl)CC12CN(C(=O)[C@H]1CC1(C)C)C2)[C@@H](C)OCC1CCCCC1` [I-232A], the IC50 (in the test on Kuramochi cells; in test [1]) was 0.5 to 5 µM in each case.

As for `CNC(=O)[C@@H](NC(=O)[C@@H]1CN(C(=O)c2cnn(Cc3ccccc3)c2)CC12CN(C(=O)NC(C)C)C2)[C@@H](C)OCC1CCCCC1` [I-267], the 50% inhibitory concentration (IC50) in the test with Kuramochi cells is above 10 µM; in test [1], above 20 µM.

Take `C[C@@H](OCC1CCC(F)(F)CC1)[C@H](NC(=O)[C@@H]1CN(C(=O)c2cnn(Cc3ccc(F)cc3)c2)CC12CN(C(=O)[C@H]1CC1(C)C)C2)C(N)=O` [I-203]: the IC50 (in the test with Kuramochi cells; in test [1]) was 0.5 to 5 µM in each case.

On to `C[C@@H](OCC1CCCCC1)[C@H](NC(=O)[C@@H]1CN(C(=O)c2cn[nH]c2)CC12CN(C(=O)[C@H]1CC1(C)C)C2)C(=O)N1CCCCC1` [I-151A], for which the concentration for half-maximal inhibition (IC50) (in the test with Kuramochi cells; in test [1]) was 0.5 to 5 µM each time.

Take `Cc1ccc(CNC(=O)[C@@H]2CN(C(=O)c3cncs3)CC23CN(C(=O)[C@H]2CC2(C)C)C3)nn1` [I-378]: the IC50 is above 10 µM with Kuramochi cells and above 20 µM in test [1].

On to `COc1ccc(CNC(=O)[C@@H]2CN(C(=O)c3cnn(Cc4ccccc4)c3)CC23CN(C(=O)[C@H]2CC2(C)C)C3)nn1` [I-371], for which the IC50 in the test with Kuramochi cells is above 10 µM; in test [1], above 20 µM.

As for `CC(C)(O)C(NC(=O)[C@@H]1CN(C(=O)c2cncs2)CC12CN(C(=O)C(C)(C)C1CC1)C2)c1cccc(C2CCOCC2)n1` (some centres unmarked) [I-339], the IC50 in test [1] is above 20 µM.

Take `CNC(=O)[C@@H](NC(=O)[C@@H]1CN(C(=O)c2cncs2)CC12CN(CC1CCCO1)C2)[C@@H](C)OCC1CCCCC1` (some centres unmarked) [I-352]: the IC50 in test [1] was above 20 µM.

Compound `C[C@@H](OCC1CCCCC1)[C@H](NC(=O)C1CN(C(=O)c2cnn(Cc3ccccc3)c2)CC12CN(C(=O)[C@H]1CC1(C)C)C2)C(=O)NCCC(=O)O` (some centres unmarked) [I-353] had an IC50 in test [1] of 5 to 20 µM.

Regarding `C[C@@H](OCC1CCCCC1)[C@H](NC(=O)[C@@H]1CN(C(=O)c2cnn(Cc3ccccc3)c2)CC12CN(C(=O)[C@H]1CC1(C)C)C2)C(=O)N1CCC(c2nnco2)CC1` [I-449], the IC50 in test [1] is at most 0.5 µM.

Consider `C[C@@H](OCC1CCC(F)(F)CC1)[C@H](NC(=O)[C@@H]1CN(C(=O)c2cn[nH]c2)CC12CN(C(=O)[C@H]1CC1(C)C)C2)C(=O)N1CCOCC1` [I-301, (S)—N-((2S,3R)-3-((4,4-difluorocyclohexyl)methoxy)-1-morpholino-1-oxobutan-2-yl)-2-((S)-2,2-dimethylcyclopropane-1-carbonyl)-6-(1H-pyrazole-4-carbonyl)-2,6-diazaspiro[3.4]octane-8-carboxamide], for which the IC50 in test [1] is above 20 µM.

For the compound `CNC(=O)[C@@H](NC(=O)[C@H]1CN(C(=O)c2cnn(Cc3ccccc3)c2)CC12CN(C(=O)OC(C)(C)C)C2)[C@@H](C)OCc1ccccc1` [I-3B], the IC50 in test [1] is above 20 µM.

As for `CC1(C)C[C@@H]1C(=O)N1CC2(CN(C(=O)c3cncs3)C[C@H]2C(=O)NC(c2cccc(C3CCCCC3)n2)C2CCOC2)C1` (some centres unmarked) [I-493], in test [1], the IC50 was in the range of 5 to 20 µM.

In turn, `C[C@@H](OCC1CCCCC1)[C@@H](COC1CCOCC1)NC(=O)[C@@H]1CN(C(=O)c2cncs2)CC12CN(C(=O)[C@H]1CC1(C)C)C2` [I-331] had an IC50 in test [1] of at most 0.5 µM.

`C[C@@H](OCC1CCC(F)(F)CC1)[C@H](NC(=O)[C@@H]1CN(C(=O)c2cncs2)CC12CN(C(=O)[C@H]1CC1(C)C)C2)C(C)(C)O` [I-313]: the IC50 in test [1] fell in the range of 0.5 to 5 µM.

`CNC(=O)[C@@H](NC(=O)C1(F)CN(C(=O)c2cnn(Cc3ccccc3)c2)CC12CN(C(=O)[C@H]1CC1(C)C)C2)[C@@H](C)OCC1CCCCC1` (some centres unmarked) [I-501] had an IC50 in test [1] of 0.5 to 5 µM.

In test [1], `C[C@@H](OCC1CCCCC1)[C@@H](COC1CCCNC1)NC(=O)[C@@H]1CN(C(=O)c2cncs2)CC12CN(C(=O)[C@H]1CC1(C)C)C2` (some centres unmarked) [I-332] had an IC50 of 5 to 20 µM.

In test [1], `C[C@@H](OCC1CCOCC1)[C@H](NC(=O)[C@@H]1CN(C(=O)c2cncs2)CC12CN(C(=O)[C@H]1CC1(C)C)C2)C(=O)N1CCC(n2ccnc2)CC1` [I-440] gave an IC50 above 20 µM.

`C[C@@H](OCC1CCCCC1)[C@H](NC(=O)[C@@H]1CN(C(=O)c2cnn(Cc3ccccc3)c2)CC12CN(C(=O)[C@H]1CC1(C)C)C2)C(=O)N1CCC(n2cccn2)CC1` [I-439]: the IC50 in test [1] is at most 0.5 µM.

Consider `CC(C)(O)C(NC(=O)[C@@H]1CN(C(=O)c2cnco2)CC12CN(C(=O)[C@H]1CC1(C)C)C2)c1cccc(C2CCOCC2)n1` (some centres unmarked) [I-436], for which the IC50 in test [1] is above 20 µM.

With `C[C@@H](OCC1CCC(F)(F)CC1)[C@H](NC(=O)C1CN(C(=O)c2cncs2)CC12CN(C(=O)[C@H]1CC1(C)C)C2)C(=O)N1CCC(OC(F)(F)F)CC1` (some centres unmarked) [I-394], in test [1], the IC50 is at most 0.5 µM.

On to `C[C@@H](OCC1CCOCC1)[C@H](NC(=O)[C@@H]1CN(C(=O)c2cn[nH]c2)CC12CN(C(=O)[C@H]1CC1(C)C)C2)C(=O)N1CCC(F)(F)CC1` [I-297], for which the IC50 in test [1] was above 20 µM.

As for `COC[C@H]1CCCN(C(=O)[C@@H](NC(=O)[C@@H]2CN(C(=O)c3cncs3)CC23CN(C(=O)[C@H]2CC2(C)C)C3)[C@@H](C)OCc2ccc(OC(F)(F)F)cc2)C1` [I-320], the IC50 in test [1] was 0.5 to 5 µM.

The values are drawn from patent publication US12065445B2, “CDK2 inhibitors and methods of using the same” (Cedilla Therapeutics, Inc., priority 2021, dated 2024).
